In the first assay the target is Bcl-xL (GST-Bcl-xL) (Homo sapiens, UniProt Q07817). As to the kind of experiment: TR-FRET binding assay, competition with F-Bak for the Bcl-xL binding site. To be noted: values listed in the order of Table 1, read-out: TR-FRET assay results (Ki), Bcl-xL. The protocol:
The measurement of competition of compounds of the invention with F-Bak for a Bcl-2 family protein (Bcl-xL) binding site using a Time Resolved Fluorescence Resonance Energy Transfer (TR-FRET) binding assay:
Test compounds were serially diluted in DMSO starting at 50 μM (2× starting concentration; 10% DMSO) and 10 μt transferred into a 384-well plate.
The samples are then mixed on a shaker for 1 minute then incubated for an additional 2 hours at room temperature. For each assay plate, a probe/antibody and protein/antibody/probe mixture were included as a negative and a positive control, respectively. Fluorescence was measured on the Envision (Perkin Elmer) using a 340/35 nm excitation filter and 520/525 (F-Bak) and 495/510 nm (Tb-labeled anti-his antibody) emission filters. Dissociation constants (Ki) were determined using Wang's equation (see, Wang, Z. X. An exact mathematical expression for describing competitive binding of two different ligands to a protein molecule. FEBS Lett. 1995 360:111-114). The TR-FRET assay can be performed in the presence of varying concentrations of human serum (HS) or fetal bovine serum (FBS).
(TR-FRET usually uses a lanthanide donor and a delayed reading to cut background.)
Chain of Bcl-xL (GST-Bcl-xL) (Q07817 whole entry, species assumed): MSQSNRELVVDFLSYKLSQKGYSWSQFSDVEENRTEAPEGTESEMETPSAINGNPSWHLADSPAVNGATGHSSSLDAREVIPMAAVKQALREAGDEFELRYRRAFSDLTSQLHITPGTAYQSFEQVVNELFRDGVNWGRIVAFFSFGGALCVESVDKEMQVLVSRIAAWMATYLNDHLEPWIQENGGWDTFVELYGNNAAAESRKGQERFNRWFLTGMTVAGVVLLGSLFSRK
One may read the Ki as a dissociation constant, usually derived from enzyme kinetics or from competition with a known ligand. `O=C(Nc1nc2ccccc2s1)c1cccc2c1CN(c1nc(C(=O)O)c(CCCCOc3ccc(-n4ncc5cncnc54)cc3)s1)CC2` [Example 43, 5-(4-(4-(1H-pyrazolo[3,4-d]pyrimidin-1-yl)phenoxy)butyl)-2-(8-(benzo[d]thiazol-2-ylcarbamoyl)-3,4-dihydroisoquinolin-2(1H)-yl)thiazole-4-carboxylic acid]: the Ki stood at 5 nM.

For the molecule `CC(C)Nc1ncnc2c1cnn2-c1ccc(OCCCc2sc(N3CCc4cccc(C(=O)Nc5nc6ccccc6s5)c4C3)nc2C(=O)O)cc1` [Example 44, 2-(8-(benzo[d]thiazol-2-ylcarbamoyl)-3,4-dihydroisoquinolin-2(1H)-yl)-5-(3-(4-(4-(isopropylamino)-1H-pyrazolo[3,4-d]pyrimidin-1-yl)phenoxy)propyl)thiazole-4-carboxylic acid], the Ki was 0.07 nM.

On to `N#Cc1c(-c2cccc(OCc3sc(N4CCc5cccc(C(=O)Nc6nc7ccccc7s6)c5C4)nc3C(=O)O)c2)n[nH]c1N` [Example 46, 5-[3-(5-Amino-4-cyano-1H-pyrazol-3-yl)-phenoxymethyl]-2-[8-(benzothiazol-2-ylcarbamoyl)-3,4-dihydro-1H-isoquinolin-2-yl]-thiazole-4-carboxylic acid], for which the Ki stood at 1 nM.

For `N#Cc1c(-c2ccc(OCCCc3sc(N4CCc5cccc(C(=O)Nc6nc7ccccc7s6)c5C4)nc3C(=O)O)cc2)csc1N` [Example 47, 5-{3-[4-(5-Amino-4-cyano-thiophen-3-yl)-phenoxy]-propyl}-2-[8-(benzothiazol-2-ylcarbamoyl)-3,4-dihydro-1H-isoquinolin-2-yl]-thiazole-4-carboxylic acid], the Ki came to 0.1 nM.

For `O=C(Nc1nc2ccccc2s1)c1cccc2c1CN(c1nc(C(=O)O)c(CCCOc3ccc(C4=CSC5=NCCN45)cc3)s1)CC2` [Example 53, 2-(8-(benzo[d]thiazol-2-ylcarbamoyl)-3,4-dihydroisoquinolin-2(1H)-yl)-5-(3-(4-(5,6-dihydroimidazo[2,1-b]thiazol-3-yl)phenoxy)propyl)thiazole-4-carboxylic acid], the Ki was found to be 0.05 nM.

For the molecule `N#Cc1cccnc1-c1ccc(OCCCc2sc(N3CCc4cccc(C(=O)Nc5nc6ccccc6s5)c4C3)nc2C(=O)O)cc1` [Example 56, 2-[8-(Benzothiazol-2-ylcarbamoyl)-3,4-dihydro-1H-isoquinolin-2-yl]-5-{3-[4-(3-cyano-pyridin-2-yl)-phenoxy]-propyl}-thiazole-4-carboxylic acid], the Ki was 0.05 nM.

With `O=C(Nc1nc2ccccc2s1)c1cccc2c1CN(c1nc(C(=O)O)c(CCCOc3ccc(N4CCOCC4)cc3)s1)CC2` [Example 59, 2-[8-(Benzothiazol-2-ylcarbamoyl)-3,4-dihydro-1H-isoquinolin-2-yl]-5-[3-(4-morpholin-4-yl-phenoxy)-propyl]-thiazole-4-carboxylic acid], the Ki is 0.3 nM.

For `N#Cc1cscc1-c1ccc(O)c(Cc2sc(N3CCc4cccc(C(=O)Nc5nc6ccccc6s5)c4C3)nc2C(=O)O)c1` [Example 60, 2-[8-(Benzothiazol-2-ylcarbamoyl)-3,4-dihydro-1H-isoquinolin-2-yl]-5-[5-(4-cyano-thiophen-3-yl)-2-hydroxy-benzyl]-thiazole-4-carboxylic acid], the Ki was 176 nM.

As to `CC(=O)N1CCN(c2ccc(OCCCc3sc(N4CCc5cccc(C(=O)Nc6nc7ccccc7s6)c5C4)nc3C(=O)O)cc2)CC1` [Example 61, 5-{3-[4-(4-Acetyl-piperazin-1-yl)-phenoxy]-propyl}-2-[8-(benzothiazol-2-ylcarbamoyl)-3,4-dihydro-1H-isoquinolin-2-yl]-thiazole-4-carboxylic acid], the Ki was 0.3 nM.

Turning to `O=C(Nc1nc2ccccc2s1)c1cccc2c1CN(c1nc(C(=O)O)c(CCCOc3ccc(-c4ncnc5c(Br)csc45)cc3)s1)CC2` [Example 65], the inhibition constant (Ki) worked out at 0.07 nM.

For the molecule `O=C(Nc1nc2ccccc2s1)c1cccc2c1CN(c1nc(C(=O)O)c(CCCOc3ccc(-n4ccnc4)cc3)s1)CC2` [Example 66, 5-(3-(4-(1H-imidazol-1-yl)phenoxy)propyl)-2-(8-(benzo[d]thiazol-2-ylcarbamoyl)-3,4-dihydroisoquinolin-2(1H)-yl)thiazole-4-carboxylic acid], the Ki worked out at 0.1 nM.

As for `O=C(Nc1nc2ccccc2s1)c1cccc2c1CN(c1nc(C(=O)O)c(CCCOc3ccc(-n4cncn4)cc3)s1)CC2` [Example 67, 5-(3-(4-(1H-1,2,4-triazol-1-yl)phenoxy)propyl)-2-(8-(benzo[d]thiazol-2-ylcarbamoyl)-3,4-dihydroisoquinolin-2(1H)-yl)thiazole-4-carboxylic acid], the Ki was 0.05 nM.

With `Cn1cnnc1-c1ccc(OCCCc2sc(N3CCc4cccc(C(=O)Nc5nc6ccccc6s5)c4C3)nc2C(=O)O)cc1` [Example 68, 2-(8-(benzo[d]thiazol-2-ylcarbamoyl)-3,4-dihydroisoquinolin-2(1H)-yl)-5-(3-(4-(4-methyl-4H-1,2,4-triazol-3-yl)phenoxy)propyl)thiazole-4-carboxylic acid], the Ki worked out at 0.2 nM.

As to `CC(C)Nc1ncnc2c(-c3ccc(OCCCc4sc(N5CCc6cccc(C(=O)Nc7nc8ccccc8s7)c6C5)nc4C(=O)O)cc3)csc12` [Example 69, 2-[8-(Benzothiazol-2-ylcarbamoyl)-3,4-dihydro-1H-isoquinolin-2-yl]-5-{3-[4-(4-isopropylamino-thieno[3,2-d]pyrimidin-7-yl)-phenoxy]-propyl}-thiazole-4-carboxylic acid], the Ki was 0.5 nM.

As to `O=C(Nc1nc2ccccc2s1)c1cccc2c1CN(c1nc(C(=O)O)c(CCCCn3ccnc3)s1)CC2` [Example 72, 5-(4-(1H-imidazol-1-yl)butyl)-2-(8-(benzo[d]thiazol-2-ylcarbamoyl)-3,4-dihydroisoquinolin-2(1H)-yl)thiazole-4-carboxylic acid], the Ki turned out to be 3 nM.

In the case of `O=C(Nc1nc2ccccc2s1)c1cccc2c1CN(c1nc(C(=O)O)c(CCCOc3ccc(-c4cn[nH]c4)cc3)s1)CC2` [Example 73, 5-(3-(4-(1H-pyrazol-4-yl)phenoxy)propyl)-2-(8-(benzo[d]thiazol-2-ylcarbamoyl)-3,4-dihydroisoquinolin-2(1H)-yl)thiazole-4-carboxylic acid], the Ki was found to be 0.08 nM.

Take `N[C@H]1[C@@H]2CCC[C@H]1[C@@H](c1ccc(OCCCc3sc(N4CCc5cccc(C(=O)Nc6nc7ccccc7s6)c5C4)nc3C(=O)O)cc1)CC2` [Example 80, 5-(3-(4-((1S,2S,5R,9S)-9-aminobicyclo[3.3.1]nonan-2-yl)phenoxy)propyl)-2-(8-(benzo[d]thiazol-2-ylcarbamoyl)-3,4-dihydroisoquinolin-2(1H)-yl)thiazole-4-carboxylic acid]: the Ki came to 0.5 nM.

Regarding `O=C(Nc1nc2ccccc2s1)c1cccc2c1CN(c1nc(C(=O)O)c(CCCOc3ccc(-c4cnn(CCN5CCOCC5)c4)cc3)s1)CC2` [Example 83, 2-(8-(benzo[d]thiazol-2-ylcarbamoyl)-3,4-dihydroisoquinolin-2(1H)-yl)-5-(3-(4-(1-(2-morpholinoethyl)-1H-pyrazol-4-yl)phenoxy)propyl)thiazole-4-carboxylic acid], the Ki is 0.05 nM.

For `Cc1c(CN2CCN(C)CC2)cnn1-c1ccc(OCCCc2sc(N3CCc4cccc(C(=O)Nc5nc6ccccc6s5)c4C3)nc2C(=O)O)cc1` [Example 85, 2-(8-(benzo[d]thiazol-2-ylcarbamoyl)-3,4-dihydroisoquinolin-2(1H)-yl)-5-(3-(4-(5-methyl-4-((4-methylpiperazin-1-yl)methyl)-1H-pyrazol-1-yl)phenoxy)propyl)thiazole-4-carboxylic acid], the Ki is 0.05 nM.

For `CN1CCN(Cc2ccc(OCCCc3sc(N4CCc5cccc(C(=O)Nc6nc7ccccc7s6)c5C4)nc3C(=O)O)cc2)CC1` [Example 89, 2-[8-(Benzothiazol-2-ylcarbamoyl)-3,4-dihydro-1H-isoquinolin-2-yl]-5-{3-[4-(4-methyl-piperazin-1-ylmethyl)-phenoxy]-propyl}-thiazole-4-carboxylic acid], the Ki is 0.1 nM.

As for `CN1CCN(CCCN(CCCc2sc(N3CCc4cccc(C(=O)Nc5nc6ccccc6s5)c4C3)nc2C(=O)O)c2ncnc3c2cnn3-c2ccc(O)cc2)CC1` [Example 91, 2-(8-(benzo[d]thiazol-2-ylcarbamoyl)-3,4-dihydroisoquinolin-2(1H)-yl)-5-(3-((1-(4-hydroxyphenyl)-1H-pyrazolo[3,4-d]pyrimidin-4-yl)(3-(4-methylpiperazin-1-yl)propyl)amino)propyl)thiazole-4-carboxylic acid], the Ki came to 0.7 nM.

With `CN(C)CCCNc1ncnc2c1cnn2-c1ccc(OCCCc2ccc(N3CCc4cccc(C(=O)Nc5nc6ccccc6s5)c4C3)nc2C(=O)O)cc1` [Example 92, 6-(8-(benzo[d]thiazol-2-ylcarbamoyl)-3,4-dihydroisoquinolin-2(1H)-yl)-3-(3-(4-(4-(3-(dimethylamino)propylamino)-1H-pyrazolo[3,4-d]pyrimidin-1-yl)phenoxy)propyl)picolinic acid], the Ki amounted to 0.05 nM.

Staying with this assay, now noted: with 1% human serum (HS).
For `CN(C)CC#Cc1ccc(OCCCc2sc(N3CCc4cccc(C(=O)Nc5nc6ccccc6s5)c4C3)nc2C(=O)O)cn1` [Example 57, 2-(8-(benzo[d]thiazol-2-ylcarbamoyl)-3,4-dihydroisoquinolin-2(1H)-yl)-5-(3-(6-(3-(dimethylamino)prop-1-ynyl)pyridin-3-yloxy)propyl)thiazole-4-carboxylic acid], the Ki stood at 0.07 nM.

Values taken from patent US8232273B2, “Heterocyclic compounds and methods of use” (Genentech, Inc., priority 2008, dated 2012).
